US8143307B2, “Benzothiophen-2-carbonylguanidine derivatives, preparation thereof, and pharmaceutical composition containing the same” (Korea Research Institute of Chemical Technology, priority 2004, dated 2012)

How the values were obtained:
Human NHE-1 = target: T1, Human NHE-1 (Homo sapiens, UniProt P19634); experiment: Inhibitory effect on NHE-1 in PS120/NHE-1 cells (recovery from intracellular acidosis, BCECF fluorescence); type: cell-based; conditions: human NHE-1 expressed PS120 cells; concentration at which recovery from intracellular acidosis was 50% inhibited
T1 construct: expressed in transfected cells; host or cells: CCL39-derived PS120 cells (PS120/NHE-1)
T1 sequence (P19634 whole entry): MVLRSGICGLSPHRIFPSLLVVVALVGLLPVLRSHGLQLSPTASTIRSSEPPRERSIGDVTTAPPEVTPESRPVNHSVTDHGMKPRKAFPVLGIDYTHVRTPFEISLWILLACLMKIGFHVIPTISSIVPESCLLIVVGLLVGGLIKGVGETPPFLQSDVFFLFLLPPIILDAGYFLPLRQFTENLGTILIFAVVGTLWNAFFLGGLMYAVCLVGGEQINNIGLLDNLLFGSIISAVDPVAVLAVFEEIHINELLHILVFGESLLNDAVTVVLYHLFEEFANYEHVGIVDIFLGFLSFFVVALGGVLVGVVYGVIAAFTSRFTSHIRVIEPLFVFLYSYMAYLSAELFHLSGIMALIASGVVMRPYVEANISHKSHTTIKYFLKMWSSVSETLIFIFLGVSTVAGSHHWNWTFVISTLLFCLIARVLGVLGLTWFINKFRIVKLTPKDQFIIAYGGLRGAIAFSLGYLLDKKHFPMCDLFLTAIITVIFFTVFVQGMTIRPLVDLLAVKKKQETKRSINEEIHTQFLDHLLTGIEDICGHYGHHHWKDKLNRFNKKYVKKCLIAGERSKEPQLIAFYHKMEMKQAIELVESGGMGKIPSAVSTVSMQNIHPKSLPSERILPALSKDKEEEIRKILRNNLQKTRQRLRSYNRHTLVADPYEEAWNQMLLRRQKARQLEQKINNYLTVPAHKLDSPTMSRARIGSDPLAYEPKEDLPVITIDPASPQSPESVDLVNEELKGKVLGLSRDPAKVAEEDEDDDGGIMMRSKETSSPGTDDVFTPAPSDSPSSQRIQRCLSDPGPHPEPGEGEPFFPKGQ
Procedure: The benzothiophen-2-carbonylguanidine derivatives of the present invention were examined for NHE-1 inhibitory effect in cells according to the following procedure.
Human NHE-1 was expressed in CCL39-derived PS120 cells. These human NHE-1 expressed cells were cultured in DMEM (Dulbecco's modified Eagle's medium) supplemented with 10% fetal bovine serum, 1% penicillin/streptomycin (100× solution), 1% L-glutamine (200 mM aqueous solution). The PS120/NHE-1 cells grown in 100 mm dishes were treated with trypsin at 80-90% confluency, followed by washing with PBS (phosphate buffer saline) once, and then once with an Na-free buffer (138.2 mM Choline chloride, 4.9 mM KCl, […]. 2H2O, 1.2 mM MgSO4.7H2O, 1.2 mM KH2PO4, 15 mM D-glucose, 20 mM HEPES, at pH 7.4). After centrifugation, the pellet was suspended in an Na-free buffer containing 20 mM NH4Cl and 10 μM BCECF-AM [2′,7′-bis(2-carboxyethyl)-5,6-carboxy-fluorescein acetoxymethyl ester] and incubated at 37° C. for 30 min in a CO2 incubator. After being harvested by centrifugation, the PS120/NHE-1 cells were washed once with an Na-free buffer to remove both NH4Cl and extracellular BCECF-AM, suspended at a density of 2.5×10^4 cells/10 μl and stored at 4° C. in a dark room until reuse. In each well of 96-well microplates, 180 μl of HBS (137 mM NaCl, 4.9 mM KCl, 1.5 mM CaCl2. 2H2O, 1.2 mM MgSO4.7H2O, 1.2 mM KH2PO4, 15 mM D-glucose, 20 mM HEPES, at pH 7.4) and 10 μl of DMSO or 10 μl of a solution of the compound (0.03˜10 μM) of the present invention in DMSO were placed and well mixed, after which 10 μl aliquots of the intracellular acidosis-induced PS120/NHE-1 cells were added thereto. 4 min after the cell addition, fluorescence (excitation: 485/444 nm, emission: 535 nm) was measured in the GEMINI-XS Microplate Spectrofluorometer (Molecular Devices). The fluorescence measured was converted into pH values using a high-K^+/nigericin technique. The cells in which intracellular acidosis was induced with NH4Cl prepulses, were recovered to normal pH values through the operation of NHE-1. The inhibitory effect of the compound against NHE-1 was evaluated as concentrations at which the recovery from the intracellular acidosis to a normal state was 50% inhibited (IC50 values), with cariporide used as a control.

[1] = tested on: isolated ischemic rat heart; experiment: Cardioprotective effect in isolated ischemic rat heart model (Langendorff); conditions: 10 μM, 30 min global ischemia, 30 min reperfusion
Procedure: Male rats (300 450 g, the Korea Research Institute of Chemical Technology, Experimental Animal Lab) were anesthetized by intraperitoneal injection with sodium pentobarbital at a dose of 100 mg/kg and were intravenously administered with heparine at a dose of 1000 U/kg, followed by the excision of the heart. In detail, a tracheotomy was performed and a tracheal cannula (PE 240) was inserted into the trachea for subsequent artificial ventilation with room air using a rodent ventilator. […] A catheter tip manometer connected to a latex balloon filled with a mixture of ethanol and distilled water (1:1 v/v) was inserted via an incision in the left atrium into the left ventricle, and the intraventricular pressure thereof transmitted to the latex balloon was measured isovolumetrically with a transducer and recorded on a recording system (Linearcorder mark 8 WR 3500) with the aid of an amplifier (Plugsys bridge amplifier). After stabilizing the heart for 15 min, the balloon volume was adjusted to create a left ventricular end-diastolic pressure (LVEDP) of 5 mmHg during the initial baseline period. The volume of the balloon was maintained until the end of the experiment. Baseline heart contraction function, spontaneous heart rate (HR) and coronary flow (CF) were determined from the left ventricular contraction interval. The left ventricular developed pressure (LVDP), which is regarded as an index of contractile function of the isolated heart, was calculated by subtracting left ventricular end-diastolic pressure (LVEDP) from left ventricular peak systolic pressure (LVSP). In contrast to the heart in the body, the Langendorff heart cannot be measured for cardiac output and thus, RPP (rate-pressure product), which is an important indirect indicator for cardiac performance, was calculated by multiplying heart rate (HR) by LVDP. Throughout the experiment, the temperature of the heart was maintained constant by […] in a 37° C. physiological solution to which 95% O2/5% CO2 was continuously supplied. The heart thus stabilized was perfursed for 10 min with a solution of the compounds of the invention or control drugs in DMSO (dimethylsulfoxide) diluted with HBS (final DMSO conc. 0.04%), or with the solvent only (a negative control; 0.04% DMSO) and then measured again for contractile function, heart rate (HR) and coronary flow (CF). The supply of perfusates was completely stopped for 30 min in order to induce global ischemia in the heart, followed by reperfusion for 30 min. The indices (LVDP, HR, LVEDP, and CF) were measured again. After the reperfusion, the total level of lactate dehydrogenase (LDH) in the reperfusates was measured using a kit and taken as an index of ischemic myocardial injury. A negative control group was treated with the solvent only while cariporide was used as a positive control.

[2] = tested on: in vivo ischemic rat heart model; experiment: Cardioprotective effect on in vivo ischemic rat heart model (coronary occlusion/reperfusion, infarct size); conditions: 45 min occlusion, 90 min reperfusion
Procedure: The cardioprotective effect of the benzothiophen-2-carbonylguanidine derivatives according to the present invention in in vivo ischemic hearts was judged with regard to their antischemic effects (myocardiac infarction reduction) on rats as follows.
Each male rat (300˜450 g, the Korea Research Institute of Chemical Technology, Experimental Animal Lab) was anesthetized by intraperitoneal injection with sodium pentobarbital at a dose of 75 mg/kg. Tracheotomy was performed and a tube was inserted into the trachea for subsequent artificial ventilation with a stroke volume of 10 ml/kg and a respiratory rate of 60 breaths/min. The femoral vein and the femoral artery were cannulated for the administration of the compounds and for the measurement of blood pressures, respectively. Meanwhile, the body temperature of the rats, an important factor to influence experimental results in the ischemic myocardiac injury model, was maintained constant at 37° C. using a homeothermic blanket control unit, with a body temperature-monitoring probe inserted into the rectum. Subsequently, rats were continuously measured for mean arterial blood pressure and heart rate HR throughout the experimental time period using a Statham P23XL pressure transducer (Grass Ins., Mass., USA) and an ECG/RATE Coupler (Hugo Sachs Electronic, Germany), respectively, with all continuous changes thereof recorded by Graphtec Linearcorder WR 3310 (Hugo Sachs Electronic).
The left coronary artery was occluded according to Selye H.'s method. In detail, after the chest of each rat was partially opened by left thoracotomy, the middle finger of the left hand was pressed against the right side of the chest of the rat to thrust out the heart which was then slightly fixed with the forefinger and the thumb of the same hand. Then, immediately after the left anterior descending coronary artery (LAD) was sutured with a 5-0 silk ligature, the heart was repositioned back in the thoracic cavity with both ends of the suture positioned outside. The ends of the suture were threaded through a PE tube (PE100, 2.5 cm) and allowed to stand for 20 min for stabilization. Through the cannula inserted into the femoral vein, a vehicle or the compounds of the invention were administered and 30 min was needed for sufficient effects of the administered compounds. Cariporide was used as a control. The ends of the suture threaded through the PE tube were pulled taut with hemostatic forceps to vertically press the PE tube against the coronary artery. After occlusion for 45 min, the hemostatic forceps were removed and reperfusion was conducted for 90 min.
The coronary artery was reoccluded in the same manner as described above, followed by the intravenous injection of 2 ml of 1% Evans blue. The intravenous injection of an excess of pentobarbital killed the rats, from which the hearts were then excised. The left ventricle was removed alone from the isolated heart and transected from the cardiac apex into 5 or 6 slices. Each slice was weighed. The image of each of the heart slices was captured using a Hi-scope, a compact vision system, and analyzed for blue-stained normal areas and non-stained areas with an image analyzing program (Image Pro Plus). In each slice, the area at risk (AAR) was calculated by multiplying the ratio of the non-stained area to the total area of the slice with the weight of the slice. Sum of the individual area at risk (AAR) for each slice was divided by the total weight of the left ventricle to obtain AAR (%) according to the following mathmatical formula 1.
Separately, the heat slices were incubated in 1%. 2,3,5-triphenyltetrazolium chloride (TTC) phosphate buffer (pH 7.4), 37° C., for 15 min and fixed in 10% formalin for 20˜24 hours. In the normal area of the tissue, 2,3,5-triphenyltetrazolium chloride was reduced by the myocardial dehydrogenase in the presence of the cofactor NADH to form formazan dye, which appeared as a brick-red color. […]

| Structure (SMILES) | IC50 (Human NHE-1) [nM] | LDH (free LDH level upon reperfusion) [1] [u/g] | LVEDP (left ventricular end-diastolic pressure) [1] [mmHg] | RPP (rate-pressure product (LVDP × HR) % relative to the value before ischemia induction) [1] [%] | Myocardiac infarction rate (IS/AAR, %) ([2]; 0.1 mg/kg intravenous) [%] | Myocardiac infarction rate (IS/AAR, %) ([2]; 0.3 mg/kg intravenous) [%] |
| --- | --- | --- | --- | --- | --- | --- |
| CC(C)c1ccc(C(=O)NC(=N)N)cc1S(C)(=O)=O [Cariporide, cariporide, reference compound] | 680 | 19.3 | 22.4 | 69.8 | 40.5 | 37.9 |
| CCc1cccc2sc(C(=O)N=C(N)N)cc12.CS(=O)(=O)O [Example 37, (4-Ethylbenzothiophene-2-Carbonyl)Guanidine Methanesulfonate] | 270 | 7.1 | 37.7 | 43.4 | 51.6 | – |
| CS(=O)(=O)O.NC(N)=NC(=O)c1cc2c(C(F)(F)F)cccc2s1 [Example 43, (4-Trifluoromethylbenzothiophene-2-Carbonyl)Guanidine Methanesulfonate] | 400 | 5.2 | 5.8 | 80.6 | 44.8 | – |
